Laboratory results published in ChEMBL document CHEMBL3046598, “In vitro antimicrobial and molecular docking of dichloro substituted benzoxazole derivatives” (2012).
Values after ≈ are worked out from the molar mass of the structure shown.

Key:
Format in all cases: functional
Escherichia coli = assay: Antibacterial activity against Escherichia coli NCIM 5051 after 24 hr by agar well diffusion method; conditions: NCIM 5051, 24 h
Staphylococcus aureus = assay: Antibacterial activity against Staphylococcus aureus NCIM 5022 after 24 hr by agar well diffusion method; conditions: NCIM 5022, 24 h
Bacillus subtilis = assay: Antibacterial activity against Bacillus subtilis NCIM 2920 after 24 hr by agar well diffusion method; conditions: NCIM 2920, 24 h
Pseudomonas aeruginosa = assay: Antibacterial activity against Pseudomonas aeruginosa NCIM 2945 after 24 hr by agar well diffusion method; conditions: NCIM 2945, 24 h
Salmonella typhi = assay: Antibacterial activity against Salmonella enterica subsp. enterica serovar Typhi ATCC 19430 after 24 hr by agar well diffusion method; conditions: ATCC 19430, 24 h
Proteus vulgaris = assay: Antibacterial activity against Proteus vulgaris NCIM 2857 after 24 hr by agar well diffusion method; conditions: NCIM 2857, 24 h

SMILES	MIC (Escherichia coli) [µg/mL]	MIC (Staphylococcus aureus) [µg/mL]	MIC (Bacillus subtilis) [µg/mL]	MIC (Pseudomonas aeruginosa) [µg/mL]	MIC (Salmonella typhi) [µg/mL]	MIC (Proteus vulgaris) [µg/mL]
Sc1nc2cc(Cl)cc(Cl)c2o1	3.12 (≈ 14.2 µM)	25 (≈ 114 µM)	6.25 (≈ 28.4 µM)	3.12 (≈ 14.2 µM)	50 (≈ 227 µM)	3.12 (≈ 14.2 µM)
CCOC(=O)CSc1nc2cc(Cl)cc(Cl)c2o1	6.25 (≈ 20.4 µM)	25 (≈ 81.7 µM)	3.12 (≈ 10.2 µM)	3.12 (≈ 10.2 µM)		6.25 (≈ 20.4 µM)
NNc1nc2cc(Cl)cc(Cl)c2o1	50 (≈ 229 µM)	6.25 (≈ 28.7 µM)	6.25 (≈ 28.7 µM)			3.12 (≈ 14.3 µM)
S=c1[nH]nc2oc3c(Cl)cc(Cl)cc3n12	3.12 (≈ 12 µM)	3.12 (≈ 12 µM)	3.12 (≈ 12 µM)	3.12 (≈ 12 µM)	50 (≈ 192 µM)	6.25 (≈ 24 µM)
CCOC(=O)CSc1nnc2oc3c(Cl)cc(Cl)cc3n12	3.12 (≈ 9.03 µM)	6.25 (≈ 18.1 µM)	3.12 (≈ 9.03 µM)	3.12 (≈ 9.03 µM)	50 (≈ 144 µM)	3.12 (≈ 9.03 µM)
O=[N+]([O-])c1ccc(NCn2nc3oc4c(Cl)cc(Cl)cc4n3c2=S)cc1		3.12 (≈ 7.62 µM)	6.25 (≈ 15.2 µM)	3.12 (≈ 7.62 µM)		6.25 (≈ 15.2 µM)
O=C(O)c1cn(C2CC2)c2cc(N3CCNCC3)c(F)cc2c1=O [CIPROFLOXACIN]	3.12 (≈ 9.43 µM)	3.12 (≈ 9.43 µM)	3.12 (≈ 9.43 µM)	3.12 (≈ 9.43 µM)	6.25 (≈ 18.9 µM)	3.12 (≈ 9.43 µM)
